{"source": "PubChem BioAssay (NCI)", "assay_in_all_cases": "NCI tumour cell line growth inhibition, 48 h", "key": {"BT-549 breast": {"system": "BT-549 breast"}, "P388 leukemia": {"system": "P388 leukemia"}, "P388/ADR leukemia": {"system": "P388/ADR leukemia"}, "SN12K1 renal": {"system": "SN12K1 renal"}, "RXF-631 renal": {"system": "RXF-631 renal"}}, "note": "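These data come from cells grown in 96-well plates and exposed to compound for 48 hours at five concentrations. GI50 is the concentration that inhibits growth by half. TGI: total growth inhibition.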"}
{"smiles": "CCSc1nc(N2CCCCC2)c2cn[nH]c2n1", "values": [{"measurement": "GI50", "setting": "BT-549 breast", "value": 20.1, "unit": "µM"}, {"measurement": "TGI", "setting": "BT-549 breast", "value": 77.5, "unit": "µM"}]}
{"smiles": "O=C(O)/C=C/c1cnc[nH]1", "values": [{"measurement": "GI50", "setting": "P388 leukemia", "value": "> 500", "unit": "µM"}, {"measurement": "TGI", "setting": "P388 leukemia", "value": "> 500", "unit": "µM"}, {"measurement": "TGI", "setting": "P388/ADR leukemia", "value": "> 500", "unit": "µM"}, {"measurement": "TGI", "setting": "SN12K1 renal", "value": "> 500", "unit": "µM"}]}
{"smiles": "CCOc1ccc(N=Nc2ccc3oc(=O)c(/C(C)=N\\NC(=O)CC(=O)Nc4ccc(Cl)cc4)cc3c2)cc1", "values": [{"measurement": "TGI", "setting": "RXF-631 renal", "value": 45.5, "unit": "µM"}]}
